# Measured values from patent US20130253022A1 (FOX CHASE CHEMICAL DIVERSITY CENTER, INC., priority 2010, published 2013).
# Legend:
# [1] = test system: MES-induced seizure spread; test: Maximal electroshock seizure (MES) test, rat; assay type: in vivo, rats; details: po
# Experimental: (§1) Seizure-related assays, Maximal electroshock test: The most definitive assay for anti-seizure activity is the maximal electroshock (MES) test (Swinyard, E. A. Laboratory evaluation of antiepileptic drugs: review of laboratory methods, Epilepsia, 1969, 10, 107-119). […] With both rodent assays, the duration of action is of high importance as well as the potency of the response.
# (§2) Methods to measure anticonvulsant activity: All tests were conducted by the Anticonvulsant Screening Program (ASP) of the National Institute of Neurological Disease and Stroke at the National Institutes of Health.
# (§3) The Maximal Electroshock Seizure (MES) or Maximal Seizure Pattern Test: The MES is a model for generalized tonic-clonic seizures (Putnam and Merritt. Experimental determination of the anticonvulsant properties of some phenyl derivatives. Science 1937, 85, 113-118). It is highly reproducible with consistent endpoints. The behavioral and electrographic seizures generated in this model are consistent with the human disorder. This model identifies those compounds which prevent seizure spread.
# (§4) In the MES test, an electrical stimulus of 0.2 s in duration (50 mA in mice and 150 mA in rat at 60 Hz) is delivered via corneal electrodes primed with an electrolyte solution containing an anesthetic agent. Mice are tested at 30 minutes and 4 hours following doses of 30, 100 and 300 mg/kg of test compound. Test compounds are administered intraperitoneally to the mice. Rats are tested at time intervals between 0.25 and 4 hours following a standard oral dose of 30 mg/kg. Abolition of the hindlimb tonic extensor component indicates the test compound's ability to inhibit MES-induced seizure spread.
# Hippocampal Cultures [2] = test: Neuroprotection from glutamate excitotoxicity, propidium iodide (cell death) assay; assay type: cell-based; details: Rattus norvegicus; 30 μM glutamate 5 min, hippocampal cultures, 4 hour test period; read-out: NP from Glutamate PI EC50
# Excerpt: (§5) Cell cultures: All compounds are screened with dissociated hippocampal cultures derived from embryonic day 18 rats as the primary test system. With this preparation, primary neurons are used to test for toxicity as well as neuroprotection in a highly relevant experimental system to epilepsy. In brief, hippocampal tissue are obtained commercially through Brain Bits (Springfield, Ill.) and cultures prepared as previously described by Brewer (Brewer, G. J. Serum-free B27/neurobasal medium supports differentiated growth of neurons from the striatum, substantia nigra, septum, cerebral cortex, cerebellum and dentate gyms, J. Neurosci. Res. 1995, 42, 674-683). The hippocampal neurons are platted at low density (10,000 cell/well) in a 96-well format and maintained in serum-free medium consisting of Neurobasal Medium supplemented with B27 and GlutaMAX (Gibco). Pre-coated poly-L-lysine coated plates are used because of the preferential adherence and survival of hippocampal neurons on this matrix support.
# (§6) Potent neuroprotection is the distinguishing characteristic that separates this program's anticonvulsants from all other commercial drugs for epilepsy. The experimental details and the rationale for the implemented assays are essential in differentiating these compounds from that of others. The central objective of all neuroprotective assays was their relevancy to excitotoxicity and oxidative stress related to epilepsy. Both the amount of glutamate and hydrogen peroxide used in the assays, as well as the time of treatment and duration of the experiment, were designed to be relevant to epilepsy. Further, all time parameters employed in these studies were empirically determined to be within the limits of reversible toxic events, yet using amounts of glutamate and hydrogen peroxide that were relevant to the disease. In regard to glutamate toxicity, a critical feature was the duration of treatment of the hippocampal neurons. The rational for using a short 5 min treatment with glutamate was based on the observation of Randall and Thayer (Randall, R. D.; Thayer, S. A. Glutamate-induced calcium transient triggers calcium overload and neurotoxicity in rat hippocampal neurons, J. Neurosci. 1992, 12, 1882-1895). […] The rationale is that this intense burst of glutamate and resulting calcium overload is relevant to seizures and therefore was important data to capture in the screening assay. The amount of glutamate (30 μM) employed in our screening was based on the basal levels of glutamate observed in microdialysis measurements of hippocampus from epileptogenic patients (Cavus et al. Decreased hippocampal volume on MRI is associated with increased extracellular glutamate in epilepsy patients, Epilepsia, 2008, 49, 1358-1366). In regard to hydrogen peroxide, the amount employed (10 μM) was detected in the hippocampus of rats after kainate-induced status epilepticus (Jarrett et. al., Mitochondrial DNA damage and impaired base excision repair during epileptogenesis, Neurobiol. Dis. 2008, 30, 130-138). To produce neural damage and death with these amounts of glutamate and hydrogen peroxide, the cultures were changed to a medium with significant depletion of antioxidant components in the defined medium supplement B-27 just prior to treatment with the compounds. This was performed to obtain a significant and reproducible toxic signal in the hippocampal neurons and because loss of antioxidant control may be a component of epileptogenesis (Waldbaum and Patel, Mitochondria, oxidative stress and temporal lobe epilepsy, Epilepsy Res. 2010 88, 23-45; Wu et al., Mitochondrial DNA mutation-elicited oxidative stress, oxidative damage, and altered gene expression in cultured cells of patients with MERRF syndrome, Mol. Neurobiol. 2010, 41, 256-266). Neuroprotection studies with hydrogen peroxide were conducted with cultures that were between day 12 and day 18. Studies of neuroprotection glutamate were conducted between day 19 and day 22. […]
# [3] = test system: MES-induced seizure spread; test: Maximal electroshock seizure (MES) test, mouse; assay type: in vivo, mice; details: for Duration of action MES: Mouse Maximal Electroshock (MES) test at 100 mg/kg, i.p.; for ED50: ip, mouse
# Experimental: as §1, §2, §3, §4
# Hippocampal Cultures [4] = test: Neuroprotection from hydrogen peroxide (oxidative stress), propidium iodide assay; assay type: cell-based; details: Rattus norvegicus; 10 μM hydrogen peroxide, hippocampal cultures, 4 hour test period; read-out: NP from Hydrogen Peroxide PI EC50
# Excerpt: as §5, §6
SMILES,ED50 [1] [mg/kg],EC50 (Hippocampal Cultures [2]) [nM],Duration of action MES [3] [h],ED50 [3] [mg/kg],EC50 (Hippocampal Cultures [4]) [nM]
"NS(=O)(=O)NCC(F)(F)c1ccccc1F [Example 1, 2,2-Difluoro-2-(2-fluorophenyl)-ethyl-1-sulfamide]",30,1,4,50,1
"NS(=O)(=O)NCC(F)(F)c1ccccc1Cl [Example 2, 2,2-Difluoro-2-(2-chlorophenyl)-ethyl-1-sulfamide]",30,1,4,54,0.1
